The values below are quoted from earlier work in patent US20210181182A1, “METHOD FOR IDENTIFICATION OF PERTURBAGENS OF PARTICULAR BIOLOGICAL PROCESSES AND CELL SYSTEMS WITHIN LIVING CELLS” (priority 2018, published 2021).

Structures are written as SMILES. Where a name gives a salt, the structure may show the parent alone. Marks after values point to notes of the source that are not given here.

In the first data set the test system is mitochondria membrane potential. The note with it: HepG2, 1-hour incubation at concentrations below 60 μM; cited from earlier work.
For the molecule `COP(=S)(OC)Oc1ccc([N+](=O)[O-])c(C)c1` [Fenitrothion], the “MMP assay hitCall” value was 0*.

Turning to `CCOC(=O)NCCOc1ccc(Oc2ccccc2)cc1` [Fenoxycarb], the “MMP assay hitCall” value is 0*.

Turning to `N#Cc1nn(-c2c(Cl)cc(C(F)(F)F)cc2Cl)c(N)c1[S+]([O-])C(F)(F)F` (stereo not drawn) [Fipronil], the “MMP assay hitCall” value is on record as 1.

On to `CC(C)N(C(=O)COc1nnc(C(F)(F)F)s1)c1ccc(F)cc1` [Flufenacet], for which the “MMP assay hitCall” value is given as 0.

Turning to `C#CCN1C(=O)COc2cc(F)c(N3C(=O)C4=C(CCCC4)C3=O)cc21` [Flumioxazin], the “MMP assay hitCall” value is 0.

`O=C(Nc1cccc(C(F)(F)F)c1)c1cc(Br)cc(Br)c1O` [Fluorosalan]: the “MMP assay hitCall” value is on record as 1.

`CO/N=C(/C1=NOCCO1)c1ccccc1Oc1ncnc(Oc2ccccc2Cl)c1F` [Fluoxastrobin]: the “MMP assay hitCall” value was 1.

`C[Si](Cn1cncn1)(c1ccc(F)cc1)c1ccc(F)cc1` [Flusilazole]: the “MMP assay hitCall” value is 1.

For `CC(C)Oc1cccc(NC(=O)c2ccccc2C(F)(F)F)c1` [Flutolanil], the “MMP assay hitCall” value was 1.

In the case of `O=C(Nc1ccccc1)Nc1ccnc(Cl)c1` [Forchlorfenuron], the “MMP assay hitCall” value is 1.

For the molecule `CNC(=O)Oc1cccc(N=CN(C)C)c1` [Formetanate hydrochloride], the “MMP assay hitCall” value is 0.

As to `C[C@@H]1[C@@H](c2ccc(Cl)cc2)SC(=O)N1C(=O)NC1CCCCC1` [Hexythiazox], the “MMP assay hitCall” value was 1.

Turning to `CC(C)(O)C(=O)Nc1ccc([N+](=O)[O-])c(C(F)(F)F)c1` [Hydroxyflutamide], the “MMP assay hitCall” value is given as 1.

Turning to `N#Cc1cc(I)c(O)c(I)c1` [Ioxynil], the “MMP assay hitCall” value is listed as 1.

On to `CC(C)C1CCC(Cc2ccc(Cl)cc2)C1(O)Cn1cncn1` (stereo not drawn) [Ipconazole], for which the “MMP assay hitCall” value is on record as 1.

For the molecule `O=c1c(O)c(-c2ccc(O)cc2)oc2cc(O)cc(O)c12` [Kaempferol], the “MMP assay hitCall” value is given as 1.

Regarding `CC(=O)N1CCN(c2ccc(OCC3COC(Cn4ccnc4)(c4ccc(Cl)cc4Cl)O3)cc2)CC1` (stereo not drawn) [Ketoconazole, reference compound], the “MMP assay hitCall” value is 1.

Regarding `CO/N=C(/C(=O)OC)c1ccccc1COc1ccccc1C` [Kresoxim-methyl], the “MMP assay hitCall” value is given as 0*.

Take `CON(C)C(=O)Nc1ccc(Cl)c(Cl)c1` [Linuron]: the “MMP assay hitCall” value is 1.

Regarding `CCOC(=O)N1CCC(=C2c3ccc(Cl)cc3CCc3cccnc32)CC1` [Loratadine, reference compound], the “MMP assay hitCall” value is on record as 1.

In the case of `CC[C@H](C)C(=O)O[C@H]1C[C@@H](C)C=C2C=C[C@H](C)[C@H](CC[C@@H]3C[C@@H](O)CC(=O)O3)[C@H]21` [Lovastatin, reference compound], the “MMP assay hitCall” value was 1.

As to `CCOC(=O)CC(SP(=S)(OC)OC)C(=O)OCC` (stereo not drawn) [Malathion], the “MMP assay hitCall” value was 0*.

Regarding `Cc1ccccc1C(=O)Nc1cccc(OC(C)C)c1` [Mepronil], the “MMP assay hitCall” value is 1.

Take `CC1(C)CCC(Cc2ccc(Cl)cc2)C1(O)Cn1cncn1` (stereo not drawn) [Metconazole]: the “MMP assay hitCall” value is recorded as 1.

With `C1N2CN3CN1CN(C2)C3` [Methenamine, reference compound], the “MMP assay hitCall” value is listed as 0.

`CCCCCC#CC(=O)OC` [Methyl 2-octynoate]: the “MMP assay hitCall” value is reported as 0.

On to `COC(=O)/C=C(\C)CCC=C(C)C` [Methyl geranate], for which the “MMP assay hitCall” value is recorded as 0.

Take `CN=C=S` [Methyl isothiocyanate]: the “MMP assay hitCall” value was 0.

As for `CN(C)c1ccc(/N=N/c2ccccc2C(=O)O)cc1` [Methyl red], the “MMP assay hitCall” value is recorded as 0.

On to `CC(=O)/C=C/c1ccccc1` [Methyl trans-styryl ketone], for which the “MMP assay hitCall” value is recorded as 0.

Consider `CCc1cccc(C)c1N(C(=O)CCl)C(C)COC` (stereo not drawn) [Metolachlor], for which the “MMP assay hitCall” value was 0.

Turning to `COC(=O)c1ccccc1S(=O)(=O)NC(=O)Nc1nc(C)nc(OC)n1` [Metsulfuron-methyl], the “MMP assay hitCall” value was 0.

Turning to `CC#C[C@]1(O)CC[C@H]2[C@@H]3CCC4=CC(=O)CCC4=C3[C@@H](c3ccc(N(C)C)cc3)C[C@@]21C` [Mifepristone, reference compound], the “MMP assay hitCall” value is recorded as 1.

For the molecule `COc1ccc(S(=O)(=O)N2C(=O)[C@@](c3ccccc3OC)(N3C[C@H](O)C[C@H]3C(=O)N(C)C)c3cc(Cl)ccc32)c(OC)c1` [Nelivaptan], the “MMP assay hitCall” value is reported as 0.

`CC1(C)NC(=O)N(c2ccc([N+](=O)[O-])c(C(F)(F)F)c2)C1=O` [Nilutamide, reference compound]: the “MMP assay hitCall” value is 0*.

Take `CNc1cnn(-c2cccc(C(F)(F)F)c2)c(=O)c1Cl` [Norflurazon]: the “MMP assay hitCall” value is given as 0.

Turning to `O=C(NC(=O)c1c(F)cccc1F)Nc1ccc(OC(F)(F)C(F)OC(F)(F)F)c(Cl)c1` (stereo not drawn) [Novaluron], the “MMP assay hitCall” value is on record as 0.

On to `CC(C)(C)CC(C)(C)c1ccc(O)c(-n2nc3ccccc3n2)c1` [Octrizole], for which the “MMP assay hitCall” value is given as 1.

As to `CC(C)Oc1cc(-n2nc(C(C)(C)C)oc2=O)c(Cl)cc1Cl` [Oxadiazon], the “MMP assay hitCall” value is reported as 1.

`CC1=C(C(=O)Nc2ccccc2)S(=O)(=O)CCO1` [Oxycarboxin]: the “MMP assay hitCall” value is 0.

On to `CCOc1cc(Oc2ccc(C(F)(F)F)cc2Cl)ccc1[N+](=O)[O-]` [Oxyfluorfen], for which the “MMP assay hitCall” value was 1.

As for `CCOP(=S)(OCC)Oc1ccc([N+](=O)[O-])cc1` [Parathion], the “MMP assay hitCall” value is 1.

Turning to `Oc1c(Cl)c(Cl)c(Cl)c(Cl)c1Cl` [Pentachlorophenol], the “MMP assay hitCall” value is 1.

In the case of `Nc1ccc(/N=N/c2ccccc2)c(N)n1` [Phenazopyridine hydrochloride, reference compound], the “MMP assay hitCall” value is reported as 1.

`CCOP(=S)(OCC)SCSCC` [Phorate]: the “MMP assay hitCall” value is on record as 0*.

On to `CCOP(=S)(OCC)SCn1c(=O)oc2cc(Cl)ccc21` [Phosalone], for which the “MMP assay hitCall” value is given as 1.

Regarding `C#CCC1=C(C)C(OC(=O)C2C(C=C(C)C)C2(C)C)CC1=O` (stereo not drawn) [Prallethrin], the “MMP assay hitCall” value is 1.

For `CCCN(CCOc1c(Cl)cc(Cl)cc1Cl)C(=O)n1ccnc1` [Prochloraz], the “MMP assay hitCall” value is reported as 0*.

Take `CCCSP(=O)(OCC)Oc1ccc(Br)cc1Cl` (stereo not drawn) [Profenofos]: the “MMP assay hitCall” value was 1.

As for `CCC(=O)Nc1ccc(Cl)c(Cl)c1` [Propanil], the “MMP assay hitCall” value is 1.

As to `C#CCOS(=O)OC1CCCCC1Oc1ccc(C(C)(C)C)cc1` (stereo not drawn) [Propargite], the “MMP assay hitCall” value is on record as 1.

Regarding `C#CC(C)(C)NC(=O)c1cc(Cl)cc(Cl)c1` [Propyzamide], the “MMP assay hitCall” value is on record as 0.

Regarding `COC(=O)N(OC)c1ccccc1COc1ccn(-c2ccc(Cl)cc2)n1` [Pyraclostrobin], the “MMP assay hitCall” value is listed as 1.

Take `CC(C)(C)c1ccc(CSc2cnn(C(C)(C)C)c(=O)c2Cl)cc1` [Pyridaben, reference compound]: the “MMP assay hitCall” value is 1.

Still in this data set, the particulars now being: cited from earlier work.
Consider `Oc1c(Cl)cc(Cl)c(Cl)c1Cc1c(O)c(Cl)cc(Cl)c1Cl` [Hexachlorophene], for which the “MMP assay hitCall” value is recorded as 1.

As to `CN(C)c1ccc(N=O)cc1` [N,N-Dimethyl-4-nitrosoaniline], the “MMP assay hitCall” value is 0.

On to `CC(C)Nc1ccc(Nc2ccccc2)cc1` [N-Isopropyl-N′-phenyl-p-phenylenediamine], for which the “MMP assay hitCall” value is recorded as 0.
